Results as given in PMC4809600, “The Influence of Chronic Wound Extracts on Inflammatory Cytokine and Histatin Stability” (PLoS ONE, 2016).

Experiments:
[1] = Stability in chronic wound extracts (CWE), capillary zone electrophoresis; type: in vitro ADME, human; conditions: 37°C, 96 h, CZE; for Starting material remaining intact after 96 h in CWE: 1 mg/ml in PBS mixed 1:1 with CWE (1 mg/ml protein, pools of 5 donors), 0 h = 100%, mean of 3 independent experiments; for Degradation in CWE in 96 h: incubation with chronic wound extracts
Excerpt: Debridement tissue was obtained from chronic ulcers of 15 patients with therapy resistant (arterio-venous) leg ulcers, according to procedures described earlier. In brief, moist, easily removable debridement material, essentially blood free, was collected from the ulcer surface and divided equally into two different solutions: (i) PBS (B. Braun, Melsungen, Germany), (ii) PBS with protease inhibitor cocktail (PIC) (1:100; v/v) (Sigma-Aldrich, Steinheim, Germany). The mixtures were gently shaken for 1 h at 4°C to elute proteins and centrifuged; the supernatants were stored at -80°C. Total protein content of the supernatant was measured using the BioRad Protein Assay (BioRad Laboratories, Hercules, California, USA) essentially as described by the supplier. Samples were diluted to 1 mg/ml protein and extracts of five different donors were pooled; three different pools of five donors were used in all experiments. The samples are referred to as chronic wound extracts (CWE).
To determine the stability of the different peptides in CWE, histatins and cytokines were dissolved in PBS at 1 mg/ml. Histatins and cytokines were incubated in a 1:1 ratio with (i) PBS, (ii) CWE in PBS, or (iii) CWE in PBS containing PIC, in a total volume of 25 μl. Imidazole (Sigma-Aldrich) was added as an internal standard, with a final concentration of 100 μg/ml. The mixtures were incubated at 37°C, and samples were taken at 0, 24, 48, 72 and 96 h. For histatins containing mixtures, additional samples were taken after 2, 4, 8 and 16 h of incubation.
The samples were analyzed with a BioFocus 2000 capillary zone electrophoresis system (Bio-Rad Laboratories, Hercules, CA, USA) equipped with an uncoated fused-silica capillary of internal diameter 50 μm and a length of 24 cm. Samples were loaded by pressure injection (5 psi/sec). Separation was performed at 10 kV (cathode at the detector side) at 20°C using 0.1 M phosphate buffer (pH 2.5) as electrolyte and monitored continuously at 200 nm. Peaks were quantified with the BioFocus Integrator software. In order to quantify the percentage of intact peptides remaining after incubation with CWE, the ratios of histatins, rhIL-6 or rhCXCL8 to internal standard was set at 100% at 0h, and the ratios at the other incubation time points were related to this.

dermal fibroblasts = test: Fibroblast wound healing scratch assay (migration); type: cell-based, human; conditions: serum-free medium, histatins 5 μM, rhIL-6 125 ng/ml, rhCXCL8 250 ng/ml, (E0-E96)/(U0-U96), unexposed = 1; for Migration of dermal fibroblasts in scratch assay, 8 h exposure: 8 h exposure then 88 h without, read at 96 h; for Migration of dermal fibroblasts in scratch assay, 96 h exposure: continuous 96 h exposure
Method: Dermal fibroblasts were isolated from healthy human abdominal skin from patients undergoing corrective abdominal plastic surgery. After removal of all adipose tissue, the skin was washed in PBS and incubated overnight on dispase II (Roche, Mannheim, Germany) at 4°C. The next day, epidermis was removed and discarded and the dermis was incubated in collagenase type II (Gibco, Life Technologies, Grand Island, USA)/dispase II in Hanks balanced salt solution (HBSS) (Gibco) at 37°C for 2–3 h. Fibroblast medium consisting of DMEM (Lonza, Verviers, Belgium) containing 1% ultroserG (UG) (Biosepra, Cergy-Saint-Christopher, France) and 1% penicillin-streptomycin (P/S) (Gibco) was added and the solution was passed through an 100 μm and 40 μm cell strainer (Becton Dickinson Falcon, Erembodegem, Belgium). A single cell suspension was seeded at ± 3.5 x 10^4 cells cm^2 and further cultured in fibroblast medium. Medium was changed twice a week and cultures were passaged when 90% confluent using 0.5mM EDTA/0.05% trypsin (Gibco). The cells were maintained at 37°C in a humidified atmosphere containing 5% CO2 and used for experiments at passage 3.
A wound healing scratch assay was performed to determine the effect of histatins, rhIL-6 and rhCXCL8 on fibroblast migration. Confluent monolayers of fibroblasts in a 48-well plate (Costar, Corning Incorporated, New York, USA) were incubated with serum-free medium (DMEM containing 1% P/S and 0.1% bovine serum albumin (Sigma-Aldrich)) for 96 h to ensure minimum spontaneous migration. Next, a scratch was drawn with a disposable plastic pipette tip. Cultures were exposed to Hst1, cHst1, Hst2 and mad-Hst1 (all used at a concentration of 5μM), rhIL-6 (125 ng/ml), rhCXCL8 (250 ng/ml) and vehicle (H2O) in serum free medium. Two experimental set-ups were studied: i) cells were exposed only during the first 8 h to histatins and cytokines and then transferred to vehicle supplemented medium for an additional 88 h; or ii) cells were exposed to histatins and cytokines during the entire 96 h study period. Phase contrast micrographs were taken directly after drawing the scratch and after four days (96 h) of exposure. Data were analyzed using an image processing algorithm that has been described in detail in our previous work. The area of the scratch covered by migrating fibroblasts was determined using the following equation: (E0-E96)/(U0-U96), in which: E = exposure to a condition (IL-6, CXCL8 and histatins); U = unexposed (serum-free medium); E0 and U0 = area of the scratch at T = 0 h; E96 and U96 = area of the scratch (not covered with cells) after 96 h. In this way, in each exposed group (IL-6, CXCL8, histatins) the resurfaced area at 96 h is compared to its own 0 h time point and then set relative to the unexposed group (serum-free medium).

[2] = experiment 1, average of four replicates
[3] = experiment 2, average of four replicates
[4] = experiment 3, average of four replicates
[5] = experiment 4, average of four replicates

With “rhCXCL8: recombinant human CXCL8; source not split at this label (migration assay used CXCL8 (6–77) from R&D)” the “Starting material remaining intact after 96 h in CWE” value [1] was “approximately 80%”, the “Degradation in CWE in 96 h” value [1] was ~ 40% and the “Migration of dermal fibroblasts in scratch assay, 8 h exposure” value (“Migration … 8 h exposure” for short) (dermal fibroblasts; [2]) was 1.29. The “Migration … 8 h exposure” value (dermal fibroblasts; [3]) was 1.35, the “Migration … 8 h exposure” value (dermal fibroblasts; [4]) was 1.63 and the “Migration … 8 h exposure” value (dermal fibroblasts; [5]) was 2.13. The “Migration of dermal fibroblasts in scratch assay, 96 h exposure” value (from here on “Migration … 96 h exposure”) (dermal fibroblasts; [2]) was 1.13, the “Migration … 96 h exposure” value (dermal fibroblasts; [3]) was 1.58 and the “Migration … 96 h exposure” value (dermal fibroblasts; [4]) was 1.46. For the same substance, the “Migration … 96 h exposure” value (dermal fibroblasts; [5]) was 1.64.
For “rhIL-6: recombinant human IL-6; source not split at this label”, the “Starting material remaining intact after 96 h in CWE” value [1] was “more than 55%”, the “Degradation in CWE in 96 h” value [1] was ~ 40% and the “Migration … 8 h exposure” value (dermal fibroblasts; [2]) was 1.22. For the same substance, the “Migration … 8 h exposure” value (dermal fibroblasts; [3]) was 1.38, the “Migration … 8 h exposure” value (dermal fibroblasts; [4]) was 1.91 and the “Migration … 8 h exposure” value (dermal fibroblasts; [5]) was 2.25. The “Migration … 96 h exposure” value (dermal fibroblasts; [2]) was 1.7, the “Migration … 96 h exposure” value (dermal fibroblasts; [3]) was 1.23 and the “Migration … 96 h exposure” value (dermal fibroblasts; [4]) was 1.5. For the same substance, the “Migration … 96 h exposure” value (dermal fibroblasts; [5]) was 2.03.
